Measured values from patent publication EP0423133B1, “ENZYMATIC RESOLUTION SYSTEMS AND COMPOUNDS USEFUL IN THE SYSTEMS AND THEIR REPARATIONS” (priority 1988, dated 1989).
In brackets after ≈: the same amount, converted by molar mass. Counter-ions that a name gives are not always drawn. Like-named read-outs stand apart in the source and are kept apart here. One block for each molecule: values may come before it.

Experiments:
Protease XXIII = assay: Homogeneous aqueous enzymatic resolution (ester hydrolysis) with enzyme A; assay type: biochemical, Aspergillus oryzae; conditions: for enantiomeric excess: pH 7.5, 100 mg Protease XXIII (A)
Procedure: The enzymes used in Examples 6.2.1.1-6.2.1.17, 6.2.1.20-6.2.1.21, 6.2.1.23-6.2.1.28, 6.2.2.7, and 6.2.3.1-6.2.3.5 that follow were all proteases commercially available from Sigma Chemical Co., St. Louis, MO. […] For examples 6.2.2.5-6.2.2.6, Candida lipase obtained from Genzyme Corporation was used.
No further purification was performed.
The aqueous layer was retained.

[1] = target: T1, Protease XXVII: "Nagarse" (Bacillus amyloliquefaciens, UniProt P00782); assay: Homogeneous aqueous enzymatic resolution (ester hydrolysis) with enzyme D; assay type: biochemical; conditions: 0.010 mol ester in 100 ml 0.2 M sodium phosphate buffer pH 7.8, 150 mg enzyme D
T1 sequence (P00782 108-382): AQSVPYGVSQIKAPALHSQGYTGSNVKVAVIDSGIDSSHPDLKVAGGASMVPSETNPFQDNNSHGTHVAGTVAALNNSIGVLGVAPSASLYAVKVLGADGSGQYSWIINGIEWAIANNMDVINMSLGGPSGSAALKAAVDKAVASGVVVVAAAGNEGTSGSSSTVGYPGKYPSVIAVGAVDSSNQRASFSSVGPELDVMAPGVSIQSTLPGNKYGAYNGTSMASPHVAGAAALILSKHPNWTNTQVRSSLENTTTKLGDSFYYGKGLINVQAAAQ
Description: (§1) The enzymes used in Examples 6.2.1.1-6.2.1.17, 6.2.1.20-6.2.1.21, 6.2.1.23-6.2.1.28, 6.2.2.7, and 6.2.3.1-6.2.3.5 that follow were all proteases commercially available from Sigma Chemical Co., St. Louis, MO. These proteases are listed in each example using the Sigma numbering system, which is summarized below: • Protease VIII: "Subtilopeptidase A", product P-5380 (also known as subtilisin Carlsberg) • Protease XIV: from Streptomyces griseus, product P-5147 • Protease XVI: from Bacillus subtilis, product P-8775 • Protease XXIII: from Aspergillus oryzae, product P-4032 • Protease XXVII: "Nagarse", product P-4789 • Protease XXIV: bacterial protease, product P-8038 An additional protease enzyme, which was designated Prozyme 6, was obtained from the Amano Enzyme Corporation and used in Examples 6.2.1.18-6.2.19, 6.2.1.22, 6.2.1.29-6.2.1.30 and 6.2.2.1-6.2.2.4 described below. A pig liver esterase was used in Example 6.21.11; this enzyme, obtained from Sigma Chemical Company, was designated as their product E-3128. For examples 6.2.2.5-6.2.2.6, Candida lipase obtained from Genzyme Corporation was used. Finally, Candida lipase, product L-1754, obtained from Sigma Chemical Co. was used in Example 6.2.2.7.

[2] = target: T2, Protease VIII: "Subtilopeptidase A" (Bacillus licheniformis, UniProt P00780); assay: Homogeneous aqueous enzymatic resolution (ester hydrolysis) with enzyme B; assay type: biochemical; conditions: for % e.e.: acid product
T2 sequence (P00780 106-379): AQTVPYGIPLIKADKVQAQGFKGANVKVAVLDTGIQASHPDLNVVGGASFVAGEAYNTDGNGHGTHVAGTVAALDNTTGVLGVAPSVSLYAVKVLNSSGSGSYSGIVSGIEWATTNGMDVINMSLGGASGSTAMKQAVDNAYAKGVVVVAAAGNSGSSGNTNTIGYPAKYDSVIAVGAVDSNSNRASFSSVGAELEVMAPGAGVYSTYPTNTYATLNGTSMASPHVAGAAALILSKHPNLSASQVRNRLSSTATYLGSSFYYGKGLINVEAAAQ

[3] = Solubility by absorbance of saturated solutions at 262 nm; assay type: physicochemical
Protease XVI = assay: Homogeneous aqueous enzymatic resolution (ester hydrolysis) with enzyme C; assay type: biochemical, Bacillus subtilis; conditions: 10.0 mmol ester in 100 ml 0.2 M phosphate buffer pH 7.0, 100 mg enzyme C, 20-22 °C, 20 hours; for % e.e.: acid product, R
Description: as §1

Prozyme 6 = assay: Homogeneous aqueous enzymatic resolution (ester hydrolysis) with enzyme F; assay type: biochemical, Aspergillus oryzae; conditions: for % CONVERSION / % e.e.: 10 mmol ester in 100 ml 0.2 M buffer pH 7.0, 100 mg Prozyme 6 (F), 25 °C, 18 hours; for % e.e.: acid product, R
[4] = test system: Candida lipase (Genzyme Corporation); assay: Asymmetric hydrolysis in a multiphase membrane bioreactor with enzyme G; assay type: biochemical, Candida cylindracea; conditions: neat liquid ester, pH 7.7
Description: The module was then drained.
This material was recrystallized from hexane.

[5] = test system: Candida lipase (Sigma L 1754); assay: Asymmetric hydrolysis in a multiphase membrane bioreactor with enzyme H; conditions: for rate of ester hydrolysis: pH 7.0
Procedure: The enzyme solution was recirculated from the shell side to the lumen side and back to the solution reservoir in an ultra-filtration mode. […] The procedure was completed in one hour.
After loading the enzyme to the reactor, recirculation of 210 gm. […] The recirculation rate was 400 ml/min and the average pressure on the shell compartment was kept at 45,5 KPa (6.5 psi) by adjusting a throttling valve at the shell side exit. On the lumen side 1 liter of 0.05 M K2 PO4 was recirculated at a rate of 400 ml/min. The pH of the aqueous reservoir was kept at 7.0 by addition of 1 M NaOH. The reactor was run continuously for 6.8 days.
The reaction progress and rate were monitored by following the caustic consumption.

[6] = 10.0 mmol ester in 100 ml 0.2 M phosphate buffer pH 7.0, 100 mg enzyme A, 20-22 °C, 20 hours
[7] = acid product, R, 10.0 mmol ester in 100 ml 0.2 M phosphate buffer pH 7.0, 100 mg enzyme A, 20-22 °C, 20 hours
[8] = aqueous buffer, saturated solutions, pH 7 (50 mM phosphate buffer), room temperature, read-out: Solubility
[9] = water, as stated in the text of the examples, read-out: water solubility

% CONVERSION ([2]; 10.0 mmol ester in 100 ml 0.2 M phosphate buffer pH 7.0, 100 mg enzyme B, 20-22 °C, 20 hours): 20.0%
% e.e. ([2]; R, 10.0 mmol ester in 100 ml 0.2 M phosphate buffer pH 7.0, 100 mg enzyme B, 20-22 °C, 20 hours): 92.1%
% CONVERSION (Protease XXIII; [6]): 43.2%
% e.e. (Protease XXIII; [7]): 97.4%
solubility [3, 8]: 1130 mM
% CONVERSION (Protease XVI): 22.0%
% e.e. (Protease XVI): 61.7%
SMILES: CC(C)Cc1ccc(C(C)C(=O)OCCCCS(=O)(=O)O)cc1 (racemic) [Compound 4, Potassium Salt of 4-Sulfobutyl Ester of 2-(4-Isobutylphenyl) propanoic Acid]

% CONVERSION (Protease XVI): 5.3%
% e.e. (Protease XVI): 75.6%
SMILES: CC(C)Cc1ccc(C(C)C(=O)OCCOP(=O)(O)O)cc1 (racemic) [Compound 5, Disodium Salt of the Phosphoric Acid Ester of the 2-Hydroxyethyl Ester of 2-(4-Isobutylphenyl) propanoic Acid]

% CONVERSION (Protease XXIII; [6]): 24.3%
% e.e. (Protease XXIII; [7]): 96.5%
SMILES: CC(C)Cc1ccc(C(C)C(=O)OCCCOS(=O)(=O)O)cc1 (racemic) [Compound 6, Potassium Salt of the Sulfuric Acid Ester of 3-Hydroxypropyl Ester of 2-(4-Isobutylphenyl) propanoic Acid]

conversion (enzymatic hydrolysis) (Protease XXIII; 2.0 gm ester in 400 ml 50 mM sodium phosphate buffer pH 7.5, 100 mg Protease XXIII (A), 25 degrees, 16 hours): 18%
enantiomeric excess (Protease XXIII; R isomer of naproxen, acid product, 16 hours): 61.2%
enantiomeric excess (Protease XXIII; S isomer of Naproxen from chemical hydrolysis (pH 12) of the unconverted ester, 16 hours): 45.5%
SMILES: COc1ccc2cc(C(C)C(=O)OCS(=O)(=O)O)ccc2c1 (racemic) [Compound 9, Sodium Salt of Sulfomethyl Ester of 2-(6-Methoxy-2-naphthyl) propanoic Acid]

% CONVERSION (Protease XXIII; [6]): 30.1%
% e.e. (Protease XXIII; [7]): >99%
solubility [3, 8]: 2180 mM
SMILES: CC(C)Cc1ccc(C(C)C(=O)OCC[N+](C)(C)C)cc1 (racemic) [Compound 10, Iodide Salt of 2-(N,N,N-Trimethylammonium)ethyl Ester of 2-(4-Isobutylphenyl) propanoic Acid]

conversion as measured by titrimetry ([2]; 8.05 gm ester in 300 ml 0.1 M potassium phosphate buffer pH 7.0, 20 mg subtilisin protease (B), point at which the reaction was stopped): 25%
SMILES: CC(Cl)C(=O)OCCCS(=O)(=O)O (racemic) [Compound 13, Potassium Salt of 3-Sulfopropyl Ester of 2-Chloropropanoic Acid]

% CONVERSION ([2]; 10.0 mmol ester in 100 ml 0.2 M buffer pH 7.0, 100 mg enzyme B, 25 °C, 18 hours): 26%
% e.e. ([2]; S, 10.0 mmol ester in 100 ml 0.2 M buffer pH 7.0, 100 mg enzyme B, 25 °C, 18 hours): 10%
% CONVERSION (Protease XXIII; 10.0 mmol ester in 100 ml 0.2 M buffer pH 7.0, 100 mg enzyme A, 25 °C, 18 hours): 53%
% e.e. (Protease XXIII; acid product, S, 10.0 mmol ester in 100 ml 0.2 M buffer pH 7.0, 100 mg enzyme A, 25 °C, 18 hours): 3%
SMILES: CC(CSC(=O)c1ccccc1)C(=O)OCS(=O)(=O)O (racemic) [Compound 16, Potassium Salt of the Sulfomethyl Ester of (±)-S-3-Benzoylthio-2-methylpropanoic Acid]

solubility [3, 8]: 0.4 mM (≈ 115 µg/mL)
solubility [3, 9]: ~0.4 mM (≈ 115 µg/mL)
SMILES: CC(C)Cc1ccc(C(C)C(=O)OCC(F)(F)F)cc1 (racemic) [Compound 19, 2,2,2-Trifluoroethyl Ester of 2-(4-Isobutylphenyl)propanoic Acid]
average hydrolytic rate ([4]; first 60 minutes, 3.0 grams Candida lipase in membrane): 160 amol/min
average hydrolysis rate ([4]; over the next 76 hours, by titrimetry): 21 µmol/min
conversion to acid ([4]; over the next 76 hours): about 9.8%

solubility [3, 8]: 1.2 mM (≈ 265 µg/mL)
solubility [3, 9]: ~1.2 mM (≈ 265 µg/mL)
SMILES: CCCCCCCCOC(=O)C(C)Cl (racemic) [Compound 20, Octyl Ester of 2-Chloropropanoic Acid]
rate of ester hydrolysis ([5]; at the beginning of the experiment, 210 gm neat ester, 30 grams Candida lipase in membrane): 186 µmol/min
rate of ester hydrolysis ([5]; at the end of the experiment (6.8 days)): 25 µmol/min
initial ester hydrolyzed ([5]; when the experiment was terminated (6.8 days)): 41%

Second part, the molecule before the results:

SMILES: CC(C)Cc1ccc(C(C)C(=O)OCCS(=O)(=O)O)cc1 (racemic) [Compound 2, Sodium Salt of 2-Sulfoethyl Ester of 2-(4-Isobutylphenyl) propanoic Acid]
% CONVERSION (Protease XXIII; [6]): 22.3%
% e.e. (Protease XXIII; [7]): 93.3%

SMILES: CC(C)Cc1ccc(C(C)C(=O)OCCCS(=O)(=O)O)cc1 (racemic) [Compound 3, Potassium Salt of 3-Sulfopropyl Ester of 2-(4-Isobutylphenyl) propanoic Acid]
% CONVERSION [1]: 32.0%
% e.e. ([1]; acid product, R): 91.0%
% CONVERSION ([2]; 0.010 mol ester in 100 ml 0.2 M sodium phosphate buffer pH 7.8, 150 mg enzyme B): 36.4%
% e.e. ([2]; R, 0.010 mol ester in 100 ml 0.2 M sodium phosphate buffer pH 7.8, 150 mg enzyme B): 98.6%
% CONVERSION (Protease XXIII; [6]): 50.0%
% CONVERSION (Protease XXIII; 0.010 mol ester in 100 ml 0.2 M sodium phosphate buffer pH 7.8, 150 mg enzyme A): 47.1%
conversion of the racemic ester to acid (Protease XXIII; about 1 M ester, 40 ml, 0.1 M potassium phosphate pH 7.0, 1.00 gm protease (A), 23.9 hours at room temperature, by hydroxide titration): 29%
% e.e. (Protease XXIII; [7]): 84.2%
% e.e. (Protease XXIII; acid product, R, 0.010 mol ester in 100 ml 0.2 M sodium phosphate buffer pH 7.8, 150 mg enzyme A): 97.7%

SMILES: COc1ccc2cc(C(C)C(=O)OCC[N+](C)(C)C)ccc2c1 (racemic) [Compound 11, Methyl Sulfate Salt of 2-(N,N,N-Trimethylammonium) ethyl Ester of 2-(6-Methoxy-2-naphthyl)propanoic Acid]
% CONVERSION (Prozyme 6): 24.3%
% e.e. (Prozyme 6): 34.0%

SMILES: COc1ccc2cc(C(C)C(=O)OCCC[N+](C)(C)C)ccc2c1 (racemic) [Compound 12, Methyl Sulfate Salt of 3-(N,N,N-Trimethylammonium) propyl Ester of 2-(6-Methoxy-2-naphthyl)propanoic Acid]
% CONVERSION (Prozyme 6): 34.0%
% e.e. (Prozyme 6): 21.6%
solubility [3, 8]: 1610 mM

SMILES: CC(Oc1ccc(Cl)cc1)C(=O)OCS(=O)(=O)O (racemic) [Compound 17, Sodium Salt of the Sulfomethyl Ester of 2-(4-Chlorophenoxy) propanoic Acid]
completion of reaction (Prozyme 6; 10 mmol ester in 100 ml 0.2 M sodium phosphate buffer pH 7.0, 35 mg Enzyme F, 30 °C, 1 hour): 22.5%

SMILES: CC(C)Cc1ccc(C(C)C(=O)OCCN(C)C)cc1 (stereo not drawn) [2-(N,N-dimethylamino)ethyl ester of ibuprofen]
solubility [3, 8]: 10 mM (≈ 2770 µg/mL)

SMILES: COCCOC(=O)C(C)c1ccc(CC(C)C)cc1 (stereo not drawn) [Methoxyethyl ester of ibuprofen]
solubility [3, 8]: 0.18 mM (≈ 47.6 µg/mL)
